Reference: ChEMBL document CHEMBL5506029 (J Med Chem, 2024)

Legend:
[1] = Unbound brain-to-plasma concentration ratio in rat at iv dosed for 4 to 24 hrs by LC-MS/MS analysis; type: ADME, organism-based; conditions: time 4-24 hrs; for Kp uu: read-out: K(p,uu,brain)
[2] = Clearance in rat plasma at iv dosed for 4 to 24 hrs by LC-MS/MS analysis; type: ADME, organism-based; conditions: time 4-24 hrs
[3] = Unbound clearance in rat plasma at iv dosed for 4 to 24 hrs by LC-MS/MS analysis; type: ADME, organism-based; conditions: in vivo, time 4-24 hrs
[4] = AUCinfinity in mouse at iv administration; type: ADME, organism-based; conditions: in vivo
[5] = Intrinsic clearance in human Hepatocyte; type: ADME, cell-based; conditions: hepatocytes, read-out: CLH
[6] = Half life in iv dosed dog; type: ADME, organism-based, Canis lupus familiaris; conditions: in vivo
[7] = Unbound clearance in mouse at iv administration; type: ADME, organism-based; conditions: in vivo
[8] = Volume of distribution at steady state in mouse at iv administration; type: ADME, organism-based; conditions: in vivo, read-out: Vdss
[9] = Clearance in Cynomolgus monkey at iv administration; type: ADME, organism-based, Macaca fascicularis; conditions: in vivo
[10] = Half life in Cynomolgus monkey at iv administration; type: ADME, organism-based, Macaca fascicularis; conditions: in vivo
[11] = AUCinfinity in Cynomolgus monkey at iv administration; type: ADME, organism-based, Macaca fascicularis; conditions: in vivo
[12] = Half life in mouse at iv administration; type: ADME, organism-based; conditions: in vivo
[13] = Volume of distribution at steady state in rat at iv administration; type: ADME, organism-based; conditions: in vivo, read-out: Vdss
[14] = Intrinsic clearance in human liver microsomes; type: ADME, Microsome; conditions: read-out: CLH
[15] = Tmax in rat at po administration; type: ADME, organism-based; conditions: in vivo
[16] = Oral bioavailability in Cynomolgus monkey; type: ADME, organism-based, Macaca fascicularis; conditions: in vivo
[17] = Tmax in mouse at po administration; type: ADME, organism-based; conditions: in vivo
[18] = Clearance in iv dosed dog; type: ADME, organism-based, Canis lupus familiaris; conditions: in vivo
[19] = Volume of distribution at steady state in Cynomolgus monkey at iv administration; type: ADME, organism-based, Macaca fascicularis; conditions: in vivo, read-out: Vdss
[20] = Oral bioavailability in mouse; type: ADME, organism-based; conditions: in vivo
[21] = AUCinfinity in rat at iv administration; type: ADME, organism-based; conditions: in vivo
[22] = Unbound clearance in iv dosed dog; type: ADME, organism-based, Canis lupus familiaris; conditions: in vivo
[23] = Half life in rat at iv administration; type: ADME, organism-based; conditions: in vivo
[24] = AUCinfinity in iv dosed dog; type: ADME, organism-based, Canis lupus familiaris; conditions: in vivo
[25] = Clearance in rat at iv administration; type: ADME, organism-based; conditions: in vivo
[26] = Unbound clearance in rat at iv administration; type: ADME, organism-based; conditions: in vivo
[27] = Oral bioavailability in dog; type: ADME, organism-based, Canis lupus familiaris; conditions: in vivo
[28] = Unbound clearance in Cynomolgus monkey at iv administration; type: ADME, organism-based, Macaca fascicularis; conditions: in vivo
[29] = Oral bioavailability in rat; type: ADME, organism-based; conditions: in vivo
[30] = Tmax in Cynomolgus monkey at po administration; type: ADME, organism-based, Macaca fascicularis; conditions: in vivo
[31] = Tmax in po dosed dog; type: ADME, organism-based, Canis lupus familiaris; conditions: in vivo
[32] = Volume of distribution at steady state in iv dosed dog; type: ADME, organism-based, Canis lupus familiaris; conditions: in vivo, read-out: Vdss

COC[C@@]12CC[C@@](c3cn4cc(C(=O)Nc5cccn([C@H]6C[C@H]6F)c5=O)c(OC(C)C)nc4n3)(CO1)C2
Kp uu [1]: 0.1 | clearance [2]: 33 mL/min/kg | CL free [3]: 312 mL/min/kg

Cc1cnc2c(NC(=O)c3cn4cc(C56COC(C)(C5)C6)nc4nc3OC(C)C)cnn2c1
K(p,uu,brain) ([1]; iv): 0.3

CC(C)Oc1nc2nc(C34COC(C)(C3)C4)cn2cc1C(=O)Nc1cccn([C@H]2C[C@H]2C)c1=O
Kp uu [1]: 0.4

CC(C)Oc1nc2nc(C34CCC(C)(C3)OC4)cn2cc1C(=O)Nc1cccn([C@H]2C[C@H]2F)c1=O (single isomer, unassigned)
Kp uu [1]: 0.2 | clearance [2]: 12.7 mL/min/kg | CL free [3]: 306 mL/min/kg

CC(C)Oc1nc2nc(C34COC(C)(C3)C4)cn2cc1C(=O)Nc1cccn([C@H]2C[C@H]2F)c1=O (single isomer, unassigned)
Kp uu [1]: 0.3

CC(C)Oc1nc2nc([C@@]34CC[C@@](C)(C3)OC4)cn2cc1C(=O)Nc1cccn(C2CC2)c1=O (single isomer, unassigned)
Kp uu [1]: 0.3 | clearance [2]: 36 mL/min/kg | CL free [3]: 310 mL/min/kg

CC(C)Oc1nc2nc(C34COC(C3)C4)cn2cc1C(=O)Nc1cccn(C2CC2)c1=O
Kp uu [1]: 0.4 | clearance [2]: 8 mL/min/kg | CL free [3]: 88 mL/min/kg

COCC12CC(c3cn4cc(C(=O)Nc5cccn(C6CC6)c5=O)c(OC(C)C)nc4n3)(CO1)C2
Kp uu [1]: 0.5 | clearance [2]: 20.8 mL/min/kg | CL free [3]: 170 mL/min/kg

CC(C)Oc1nc2nc(C34COC(CF)(C3)C4)cn2cc1C(=O)Nc1cccn(C2CC2)c1=O
Kp uu [1]: 0.2 | clearance [2]: 9.6 mL/min/kg | CL free [3]: 51 mL/min/kg

COC[C@@]12CC[C@@](c3cn4cc(C(=O)Nc5cccn(C6CC6)c5=O)c(OC(C)C)nc4n3)(CO1)C2
Kp uu [1]: 0.2 | clearance [2]: 17 mL/min/kg | CL free [3]: 281 mL/min/kg

CC(C)Oc1nc2nc(C34COC(C)(C3)C4)cn2cc1C(=O)Nc1cccn(C2CC2)c1=O
Kp uu [1]: 0.7 | AUC(0-inf) [4]: 1020 ng·h/mL | CLint scaled [5]: 5.1 mL/min/kg | half-life [6]: 1.4 h | CL free [7]: 240 mL/min/kg | Vd [8]: 1.5 L/kg | clearance [9]: 15.1 mL/min/kg | half-life [10]: 0.8 h | AUC(0-inf) [11]: 1130 ng·h/mL | half-life [12]: 1.6 h | Vd [13]: 2.9 L/kg | CLint scaled [14]: < 5 mL/min/kg | Tmax [15]: 0.25 h | bioavailability [16]: 61% | Tmax [17]: 0.25 h | clearance [18]: 12.7 mL/min/kg | Vd [19]: 0.9 L/kg | bioavailability [20]: 92% | AUC(0-inf) [21]: 1040 ng·h/mL | CL free [22]: 76 mL/min/kg | half-life [23]: 2.5 h | AUC(0-inf) [24]: 1400 ng·h/mL | clearance [25]: 14.2 mL/min/kg | CL free [26]: 171 mL/min/kg | bioavailability [27]: 89% | CL free [28]: 98 mL/min/kg | bioavailability [29]: 128% | Tmax [30]: 1.2 h | Tmax [31]: 0.6 h | Vd [32]: 1.4 L/kg
